From PubChem BioAssay AID2060491 (Molecular Pharmacology Branch, DTP, NCI, 2025)

Tested on: 857933-349-R-J2-PDC complex spheroids, viability
Test: Anticancer human tumor 857933-349-R-J2-PDC patient-derived colon adenocarcinoma cell line growth inhibition [GQUAD]
Conditions: for IC50: curve of first compound; for viability, T/C: stronger effect = lower value
Summary of the method: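 Multi-cell-type spheroids of tumor cells with HUVEC and mesenchymal stem cells, treated with drug combinations. Concentrations descend in half-log steps from near clinical Cmax, or from 10 microM where Cmax is unknown; viability read-out.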

[1] = second compound 0.0316 µM, first compound 0.0316 µM
[2] = second compound 0.0316 µM, first compound 0.1 µM
[3] = second compound 0.0316 µM, first compound 0.316 µM
[4] = second compound 0.0316 µM, first compound 1 µM
[5] = second compound 0.0316 µM, first compound 3.16 µM
[6] = second compound 0.0316 µM, first compound 10 µM
[7] = second compound 0.1 µM, first compound 0.0316 µM
[8] = second compound 0.1 µM, first compound 0.1 µM
[9] = second compound 0.1 µM, first compound 0.316 µM
[10] = second compound 0.1 µM, first compound 1 µM
[11] = second compound 0.1 µM, first compound 3.16 µM
[12] = second compound 0.1 µM, first compound 10 µM
[13] = second compound 0.316 µM, first compound 0.0316 µM
[14] = second compound 0.316 µM, first compound 0.1 µM
[15] = second compound 0.316 µM, first compound 0.316 µM
[16] = second compound 0.316 µM, first compound 1 µM
[17] = second compound 0.316 µM, first compound 3.16 µM
[18] = second compound 0.316 µM, first compound 10 µM
[19] = second compound 1 µM, first compound 0.0316 µM
[20] = second compound 1 µM, first compound 0.1 µM
[21] = second compound 1 µM, first compound 0.316 µM
[22] = second compound 1 µM, first compound 1 µM
[23] = second compound 1 µM, first compound 3.16 µM
[24] = second compound 1 µM, first compound 10 µM
[25] = second compound 3.16 µM, first compound 0.0316 µM
[26] = second compound 3.16 µM, first compound 0.1 µM
[27] = second compound 3.16 µM, first compound 0.316 µM
[28] = second compound 3.16 µM, first compound 1 µM
[29] = second compound 3.16 µM, first compound 3.16 µM
[30] = second compound 3.16 µM, first compound 10 µM
[31] = second compound 10 µM, first compound 0.0316 µM
[32] = second compound 10 µM, first compound 0.1 µM
[33] = second compound 10 µM, first compound 0.316 µM
[34] = second compound 10 µM, first compound 1 µM
[35] = second compound 10 µM, first compound 3.16 µM
[36] = second compound 10 µM, first compound 10 µM
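Also: spheroids exposed to compounds for one week before readout.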
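For viability, T/C in this document: percent viability relative to vehicle DMSO wells taken as 100%.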

For COc1ncnc(C2CC2)c1-c1ncc2cnn(Cc3ccc(-c4nc(C(F)(F)F)cn4C(C)C)cc3)c2n1 + CN(C)c1ccc(Nc2c3ccc(NC(=O)CCN4CCCC4)cc3nc3cc(NC(=O)CCN4CCCC4)ccc23)cc1, which IC50 (second compound 0.0316 µM) is on record?
Its IC50 is over 10 µM.

What about the IC50 (second compound 0.1 µM) of the same compound?
Its IC50 is over 10 µM.

And the IC50 (second compound 0.316 µM)?
The IC50 was over 10 µM.

And the IC50 (second compound 1 µM)?
Its IC50 is over 10 µM.

And the IC50 (second compound 3.16 µM)?
The IC50 was over 10 µM.

What about the IC50 (second compound 10 µM) of the same compound?
The IC50 was over 10 µM.

And the viability, T/C [1]?
Its viability, T/C is 106%.

And the viability, T/C [2]?
The viability, T/C was 99.8%.

What about the viability, T/C [3] of the same compound?
The viability, T/C was 102%.

And the viability, T/C [4]?
Its viability, T/C is 101%.

And the viability, T/C [5]?
The viability, T/C was 104%.

And the viability, T/C [6]?
Its viability, T/C is 104%.

And the viability, T/C [7]?
Its viability, T/C is 99.9%.

And the viability, T/C [8]?
The viability, T/C was 103%.

And the viability, T/C [9]?
Its viability, T/C is 102%.

What about the viability, T/C [10] of the same compound?
The viability, T/C was 101%.

And the viability, T/C [11]?
Its viability, T/C is 105%.

What about the viability, T/C [12] of the same compound?
Its viability, T/C is 109%.

And the viability, T/C [13]?
Its viability, T/C is 104%.

And the viability, T/C [14]?
The viability, T/C was 104%.

And the viability, T/C [15]?
The viability, T/C was 97.3%.

What about the viability, T/C [16] of the same compound?
Its viability, T/C is 90.8%.

What about the viability, T/C [17] of the same compound?
Its viability, T/C is 104%.

What about the viability, T/C [18] of the same compound?
Its viability, T/C is 99.2%.

And the viability, T/C [19]?
Its viability, T/C is 97.7%.

What about the viability, T/C [20] of the same compound?
The viability, T/C was 88.5%.

What about the viability, T/C [21] of the same compound?
Its viability, T/C is 94.6%.

What about the viability, T/C [22] of the same compound?
The viability, T/C was 92.7%.

And the viability, T/C [23]?
The viability, T/C was 90.7%.

And the viability, T/C [24]?
Its viability, T/C is 87.6%.

And the viability, T/C [25]?
The viability, T/C was 83.9%.

And the viability, T/C [26]?
Its viability, T/C is 77.7%.

And the viability, T/C [27]?
The viability, T/C was 82.5%.

And the viability, T/C [28]?
The viability, T/C was 74.2%.

And the viability, T/C [29]?
Its viability, T/C is 79.6%.

And the viability, T/C [30]?
Its viability, T/C is 67.3%.

What about the viability, T/C [31] of the same compound?
The viability, T/C was 64.6%.

And the viability, T/C [32]?
The viability, T/C was 63.1%.

What about the viability, T/C [33] of the same compound?
Its viability, T/C is 66.2%.

And the viability, T/C [34]?
The viability, T/C was 61.6%.

And the viability, T/C [35]?
Its viability, T/C is 56.5%.

What about the viability, T/C [36] of the same compound?
The viability, T/C was 52.2%.

COc1ccc([C@@H](O)c2cc(-c3ncnc4cc(N5CCOCC5)ccc34)c(F)cc2Cl)nn1 + Cc1[nH]c2ccc(F)cc2c1-c1nc2c3cccnc3c3ncccc3c2[nH]1 was tested. Which IC50 (second compound 0.0316 µM) did it give?
Its IC50 is over 10 µM.

And the IC50 (second compound 0.1 µM)?
Its IC50 is 8.66 µM.

What about the IC50 (second compound 0.316 µM) of the same compound?
Its IC50 is over 10 µM.

And the IC50 (second compound 1 µM)?
Its IC50 is over 10 µM.

And the IC50 (second compound 3.16 µM)?
Its IC50 is over 10 µM.

And the IC50 (second compound 10 µM)?
Its IC50 is over 10 µM.

What about the viability, T/C [1] of the same compound?
The viability, T/C was 124%.

And the viability, T/C [2]?
Its viability, T/C is 98.5%.

And the viability, T/C [3]?
The viability, T/C was 99.8%.

And the viability, T/C [4]?
The viability, T/C was 82.2%.

What about the viability, T/C [5] of the same compound?
Its viability, T/C is 69.9%.

What about the viability, T/C [6] of the same compound?
The viability, T/C was 51.6%.

And the viability, T/C [7]?
The viability, T/C was 107%.

And the viability, T/C [8]?
The viability, T/C was 108%.

What about the viability, T/C [9] of the same compound?
Its viability, T/C is 93.5%.

What about the viability, T/C [10] of the same compound?
The viability, T/C was 87.8%.

And the viability, T/C [11]?
Its viability, T/C is 64.2%.

And the viability, T/C [12]?
The viability, T/C was 48.1%.

And the viability, T/C [13]?
Its viability, T/C is 108%.

And the viability, T/C [14]?
The viability, T/C was 91.1%.

What about the viability, T/C [15] of the same compound?
The viability, T/C was 99.1%.

And the viability, T/C [16]?
Its viability, T/C is 90.8%.

What about the viability, T/C [17] of the same compound?
Its viability, T/C is 71.6%.

And the viability, T/C [18]?
Its viability, T/C is 58.1%.

And the viability, T/C [19]?
The viability, T/C was 102%.

What about the viability, T/C [20] of the same compound?
The viability, T/C was 98.8%.

What about the viability, T/C [21] of the same compound?
Its viability, T/C is 96.3%.

And the viability, T/C [22]?
Its viability, T/C is 99.4%.

And the viability, T/C [23]?
The viability, T/C was 71.8%.

What about the viability, T/C [24] of the same compound?
The viability, T/C was 52.7%.

What about the viability, T/C [25] of the same compound?
The viability, T/C was 113%.

What about the viability, T/C [26] of the same compound?
The viability, T/C was 96.5%.

What about the viability, T/C [27] of the same compound?
The viability, T/C was 95.1%.

And the viability, T/C [28]?
Its viability, T/C is 94%.

What about the viability, T/C [29] of the same compound?
Its viability, T/C is 66.1%.

What about the viability, T/C [30] of the same compound?
Its viability, T/C is 52.2%.

What about the viability, T/C [31] of the same compound?
Its viability, T/C is 105%.

And the viability, T/C [32]?
Its viability, T/C is 94.1%.

And the viability, T/C [33]?
Its viability, T/C is 91.6%.

What about the viability, T/C [34] of the same compound?
Its viability, T/C is 79.9%.

And the viability, T/C [35]?
Its viability, T/C is 68.6%.

What about the viability, T/C [36] of the same compound?
Its viability, T/C is 51.9%.
